Measured values taken from patent publication EP4596561A1, “PHOSPHORUS-CONTAINING COMPOUND, PHARMACEUTICAL COMPOSITION AND USE THEREOF” (Suzhou Genhouse Bio Co., Ltd., priority 2022, dated 2024).
Where two headings read alike, the source gives them in different places.

Tests used:
[1] = Stability test in liver microsomes; format: in vitro ADME; details: Human liver microsomes, 0.5 mg/mL, 1.0 µM substrate
Procedure: Phase I metabolic stability of the test compounds in liver microsomes of CD-1 mice, Sprague-Dawley rats, and humans was assessed.
The animal and human liver microsomes used in the test system were purchased from Xenotech, Corning, or other qualified suppliers and stored in a freezer at a temperature below -60 °C prior to use. The information of the animal and human liver microsomes used was as follows:
The test samples and the reference compounds were separately incubated with animal and human liver microsomes at 37±1 °C for a period of incubation time of up to 60 min. The samples were taken out at the indicated time points, and the reaction was stopped with acetonitrile or another organic solvent containing an internal standard. After centrifugation, the resulting supernatants were assayed by the liquid chromatography-tandem mass spectrometry (LC-MS/MS) method.
Microsomes of each species were diluted into a 2× working solution with a 100 mM potassium phosphate buffer. […]
Incubation was performed in a 96-well plate. Eight incubation plates were prepared and designated T0, T5, T15, T30, T45, T60, Blank60, and NCF60, respectively. The first 6 plates corresponded to reaction time points of 0 min, 5 min, 15 min, 30 min, 45 min, and 60 min, respectively. No test sample or reference compound was added to the Blank60 plate, and samples were taken after 60 min of incubation. In the NCF60 plate, incubation was performed for 60 min using the potassium phosphate buffer instead of the NADPH regeneration system solution. Three replicates were made for samples in all conditions.
The microsomes and the test sample or reference compound were mixed, and then the incubation plates Blank60, T5, T15, T30, T45, and T60 except for T0 and NCF60 were placed in a 37 °C water bath for pre-incubation for about 10 min. In the incubation plate T0, a stop solution was first added, followed by the addition of the NADPH regeneration system working solution, and 98 µL of the potassium phosphate buffer was added to each sample well of the incubation plate NCF60 to initiate the reaction. After the pre-incubation of the incubation plates Blank60, T5, T15, T30, T45, and T60 was completed, 98 µL of the NADPH regeneration system working solution was added to each sample well to initiate the reaction. The reaction temperature was 37±1 °C, the final volume of the reaction was 200 µL, and the reaction system included 0.5 mg/mL microsomes, 1.0 µM substrate, 1 mM NADP, 6 mM ISO, and 1 unit/mL IDH.
At 5 min, 15 min, 30 min, 45 min, and 60 min, a cold stop solution containing an internal standard was added to the reaction plate to stop the reaction.
All the reaction plates after the reaction was stopped were shaken well and centrifuged at 3220× g at 4 °C for 20 min. After the supernatant was diluted at a certain ratio, LC-MS/MS analysis was performed.
Sample analysis was performed by the liquid chromatography-tandem mass spectrometry (LC-MS/MS) method without standard curves and quality control samples. Semi-quantitative determination was performed according to the ratio of the analyte peak area to the internal standard peak area. The retention times of the analyte and internal standard, the chromatogram acquisition, and chromatogram integration were processed using the Analyst software (Sciex, Framingham, Massachusetts, USA).
According to the well stir model, the hepatic intrinsic clearance and hepatic clearance can be converted through the following formula. CL(liver) = (CLint(liver)×Qh)/(CLint(liver)+Qh) [formula]

H226 cells = test: Pharmacodynamic test, H226 subcutaneous xenograft; format: in vivo, nude mice (BALB/c nu/nu)
Procedure: Healthy female nude mice (BALB/c nu/nu) aged 6-8 weeks were housed in an SPF environment in accordance with animal ethical guidelines. The well-growing 10^7 H226 cells were harvested through trypsin digestion, washed in phosphate-buffered saline (PBS), and then resuspended in PBS containing 50% matrigel (BD Biosciences).
Subcutaneous injection was then performed at the dorsolateral sites of the mice, and the tumor volume was measured once every three days thereafter. When the tumor volume reached around 150-200 mm^3, the mice were randomly assigned to different treatment groups. Any one of the compounds described herein was prepared accordingly and administered at an appropriate dose. Finally, the tumor growth in the nude mice was analyzed after 4 to 6 weeks based on the growth of the tumors.

[2] = Pharmacokinetic test in mice (low dose); format: in vivo, Balb/c mice; details: mouse, mice; for AUC(0-t): read-out: AUClast; for clearance: read-out: Cl (converted); for half-life: read-out: T1/2 (converted); for bioavailability: PO 10 mg/kg vs IV 2 mg/kg, read-out: F%; for Cmax: read-out: Cmax

For CP(C)(=O)c1ccc2c(c1)c1ccccc1n2-c1ccc(C(F)(F)F)cc1 [Example 1], the half-life at 1 µM [1] was over 145 min, the TGI (H226 cells; 50mpk QD) was 50mpk QD TGI = 108.39% and the TGI (H226 cells; 100mpk QD) was 100mpk QD TGI = 113.05%. For the same compound, the MRT ([2]; in vivo, IV 2 mg/kg) was 6.1 h, the AUC(0-t) ([2]; in vivo, IV 2 mg/kg) was 30.7 µM·h and the clearance ([2]; in vivo, IV 2 mg/kg) was 2.83 mL/min/kg. It also gave a half-life ([2]; in vivo, IV 2 mg/kg) of 252 min, an MRT ([2]; in vivo, PO 10 mg/kg) of 6.5 h and a bioavailability ([2]; in vivo) of 118%. For the same compound, the AUC(0-t) ([2]; in vivo, PO 10 mg/kg) was 182 µM·h, the Cmax ([2]; in vivo, PO 10 mg/kg) was 12.9 µM and the half-life ([2]; in vivo, PO 10 mg/kg) was 234 min.

With CP(C)(=O)c1ccc2c(c1)c1cccnc1n2-c1ccc(C(F)(F)F)cc1 [Example 5] the MRT ([2]; plasma, IV 2 mg/kg) was 2.5 h, the AUC(0-t) ([2]; plasma, IV 2 mg/kg) was 9.37 µM·h and the clearance ([2]; plasma, IV 2 mg/kg) was 8.33 mL/min/kg. For the same compound, the half-life ([2]; plasma, IV 2 mg/kg) was 108 min, the MRT ([2]; plasma, PO 10 mg/kg) was 5.3 h and the bioavailability ([2]; plasma) was 318%. For the same compound, the AUC(0-t) ([2]; plasma, PO 10 mg/kg) was 155 µM·h, the Cmax ([2]; plasma, PO 10 mg/kg) was 15.5 µM and the half-life ([2]; plasma, PO 10 mg/kg) was 156 min.

Work on CP(C)(=O)c1ccc2c(Oc3ccc(C(F)(F)F)cc3)cccc2c1 [Example 7] yielded a half-life at 1 µM [1] of over 145 min, a TGI (H226 cells; 5mpk QD) of 5mpk QD TGI = 111.84% and an MRT ([2]; in vivo, IV 2 mg/kg) of 171 h. For the same compound, the AUC(0-t) ([2]; in vivo, IV 2 mg/kg) was 50.7 µM·h, the clearance ([2]; in vivo, IV 2 mg/kg) was 0.25 mL/min/kg and the half-life ([2]; in vivo, IV 2 mg/kg) was 7180 min. It also gave an MRT ([2]; in vivo, PO 10 mg/kg) of 211 h, a bioavailability ([2]; in vivo) of 106% and an AUC(0-t) ([2]; in vivo, PO 10 mg/kg) of 267 µM·h. The Cmax ([2]; in vivo, PO 10 mg/kg) was 12.7 µM and the half-life ([2]; in vivo, PO 10 mg/kg) was 8790 min.

Work on Cn1cnc(-c2cc(P(C)(C)=O)cnc2Nc2ccc(C(F)(F)F)cc2)c1 [Example 8] yielded a half-life at 1 µM [1] of over 145 min, a TGI (H226 cells; 10mpk QD) of 10mpk QD TGI = 115.60% and an MRT ([2]; in vivo, IV 2 mg/kg) of 6.4 h. It also gave an AUC(0-t) ([2]; in vivo, IV 2 mg/kg) of 7.94 µM·h, a clearance ([2]; in vivo, IV 2 mg/kg) of 10 mL/min/kg and a half-life ([2]; in vivo, IV 2 mg/kg) of 336 min. For the same compound, the MRT ([2]; in vivo, PO 10 mg/kg) was 47.2 h, the bioavailability ([2]; in vivo) was 300% and the AUC(0-t) ([2]; in vivo, PO 10 mg/kg) was 119 µM·h. It also gave a Cmax ([2]; in vivo, PO 10 mg/kg) of 14.6 µM and a half-life ([2]; in vivo, PO 10 mg/kg) of 2050 min.

For CP(C)(=O)c1ccc(Nc2ccc(C(F)(F)F)cc2)c(-c2ccccn2)c1 [Example 10], the half-life at 1 µM [1] was over 145 min, the TGI (H226 cells; 25mpk QD) was 25mpk QD TGI = 100.89% and the MRT ([2]; plasma, IV 2 mg/kg) was 75 h. It also gave an AUC(0-t) ([2]; plasma, IV 2 mg/kg) of 59.3 µM·h, a clearance ([2]; plasma, IV 2 mg/kg) of 0.4 mL/min/kg and a half-life ([2]; plasma, IV 2 mg/kg) of 3120 min. It also gave an MRT ([2]; plasma, PO 10 mg/kg) of 75.6 h, a bioavailability ([2]; plasma) of 98% and an AUC(0-t) ([2]; plasma, PO 10 mg/kg) of 290 µM·h. It also gave a Cmax ([2]; plasma, PO 10 mg/kg) of 14.6 µM and a half-life ([2]; plasma, PO 10 mg/kg) of 1690 min.

For CP(C)(=O)c1ccc(Nc2ccc(C(F)(F)F)cc2)c(-c2ncccn2)c1 [Example 12], the half-life at 1 µM [1] was over 145 min, the TGI (H226 cells; 50mpk QD) was 50mpk QD TGI = 111.58% and the MRT ([2]; plasma, IV 2 mg/kg) was 23.4 h. The AUC(0-t) ([2]; plasma, IV 2 mg/kg) was 58.8 µM·h, the clearance ([2]; plasma, IV 2 mg/kg) was 1 mL/min/kg and the half-life ([2]; plasma, IV 2 mg/kg) was 1030 min. It also gave an MRT ([2]; plasma, PO 10 mg/kg) of 34.5 h, a bioavailability ([2]; plasma) of 100% and an AUC(0-t) ([2]; plasma, PO 10 mg/kg) of 295 µM·h. For the same compound, the Cmax ([2]; plasma, PO 10 mg/kg) was 16.1 µM and the half-life ([2]; plasma, PO 10 mg/kg) was 1540 min.

Cn1cnc(-c2cc(P(C)(C)=O)ccc2Nc2ccc(C(F)(F)F)cc2)c1 [Example 14] gave a half-life at 1 µM [1] of over 145 min, a TGI (H226 cells; 10mpk QD) of 10mpk QD TGI = 100.38% and an MRT ([2]; in vivo, IV 2 mg/kg) of 26.2 h. It also gave an AUC(0-t) ([2]; in vivo, IV 2 mg/kg) of 21.2 µM·h, a clearance ([2]; in vivo, IV 2 mg/kg) of 2.33 mL/min/kg and a half-life ([2]; in vivo, IV 2 mg/kg) of 1140 min. It also gave an MRT ([2]; in vivo, PO 10 mg/kg) of 17.8 h, a bioavailability ([2]; in vivo) of 106% and an AUC(0-t) ([2]; in vivo, PO 10 mg/kg) of 112 µM·h. It also gave a Cmax ([2]; in vivo, PO 10 mg/kg) of 8.08 µM and a half-life ([2]; in vivo, PO 10 mg/kg) of 738 min.

CP(C)(=O)c1cnc(Nc2ccc(C(F)(F)F)cc2)c(-c2cn3c(n2)CCC3)c1 [Example 22] showed a half-life at 1 µM [1] of over 145 min, a TGI (H226 cells; 10mpk QD) of 10mpk QD TGI = 106.26% and a TGI (H226 cells; 30mpk QD) of 30mpk QD TGI = 113.45%. The MRT ([2]; in vivo, IV 2 mg/kg) was 10.8 h, the AUC(0-t) ([2]; in vivo, IV 2 mg/kg) was 16.4 µM·h and the clearance ([2]; in vivo, IV 2 mg/kg) was 4.17 mL/min/kg. It also gave a half-life ([2]; in vivo, IV 2 mg/kg) of 534 min, an MRT ([2]; in vivo, PO 10 mg/kg) of 9.9 h and a bioavailability ([2]; in vivo) of 114%. It also gave an AUC(0-t) ([2]; in vivo, PO 10 mg/kg) of 96.4 µM·h, a Cmax ([2]; in vivo, PO 10 mg/kg) of 7.07 µM and a half-life ([2]; in vivo, PO 10 mg/kg) of 456 min.

For Cc1ccc(Oc2ccc(C(F)(F)F)cc2)c2ccc(P(C)(C)=O)cc12 [Example 24], the half-life at 1 µM [1] was 166 min, the AUC(0-t) ([2]; in vivo, IV 2 mg/kg) was 22.1 µM·h and the clearance ([2]; in vivo, IV 2 mg/kg) was 3.3 mL/min/kg. It also gave a half-life ([2]; in vivo, IV 2 mg/kg) of 660 min, a bioavailability ([2]; in vivo) of 120% and an AUC(0-t) ([2]; in vivo, PO 10 mg/kg) of 133 µM·h. The Cmax ([2]; in vivo, PO 10 mg/kg) was 7.82 µM and the half-life ([2]; in vivo, PO 10 mg/kg) was 972 min.
